Reference: US20030144308A1, “Fructose 1,6-bisphosphatase inhibitors” (priority 2001, published 2003)
Values belong to the compound of their own block, whether it stands above or below them.

Tests used:
[1] = target: recombinant human F16BPase (Homo sapiens, UniProt P09467); settings: read-out: IC50 against the human enzyme; allosteric inhibitor; 40 minutes at room temperature without preincubation of compound with enzyme
Method: Fructose-1,6-bisphosphatase Enzyme Assay: Fructose-1,6-bisphosphatase (F16BP) is assayed by measuring its ability to hydrolyze inorganic phosphate from fructose-1,6-bisphosphate using a modification of a reported method (Biochem. J. 1994, 298, 395). […] The final solution consists of 50 mM HEPES (catalog #H7523, Sigma Chemical Company, PO Box 14508, St. Louis, Mo. 63178) pH=7.2, 100 mM KCl (Sigma catalog #P3911), 2 mM MgCI2 (Sigma catalog #M9272), 2 mM EGTA (Sigma catalog #E0396), 1 mM DTT (Sigma atalog #D5545), and 500 1 μM fructose-1,6-bisphosphate (Sigma catalog #752-1). The solution is incubated for 40 minutes at room temperature without preincubation of compound with enzyme. The phosphate released by the enzyme is measured spectrophotometrically using a Titertek Multiscann MCC 340 (Titertek, 330 Wynn Drive, Huntsville, Ala. 35805) at 620 nm, after allowing the phosphate to form a complex for 10 minutes after the addition of 150 μL of ammonium molybdate/malachite green (AM/MG) solution. To prepare the AM/MG solution, one volume of 4.2% ammonium molybdate (w/v, Sigma catalog #A7302) in 4 molar aqueous hydrochloric acid is added to three volumes of 0.045% malachite green (w/v, Sigma catalog #M9636) and 0.01% Tween®-20 (v/v, Sigma catalog #P1379) in water. […]

[2] = test system: transplanted human mammary carcinoma which expresses epidermal growth factor receptor tyrosine kinase (EGFR); settings: athymic nude mice; cited from earlier work
[3] = test system: another carcinoma which does not express the EGF receptor; settings: mouse, in vivo; cited from earlier work

Chain of recombinant human F16BPase (P09467 whole entry): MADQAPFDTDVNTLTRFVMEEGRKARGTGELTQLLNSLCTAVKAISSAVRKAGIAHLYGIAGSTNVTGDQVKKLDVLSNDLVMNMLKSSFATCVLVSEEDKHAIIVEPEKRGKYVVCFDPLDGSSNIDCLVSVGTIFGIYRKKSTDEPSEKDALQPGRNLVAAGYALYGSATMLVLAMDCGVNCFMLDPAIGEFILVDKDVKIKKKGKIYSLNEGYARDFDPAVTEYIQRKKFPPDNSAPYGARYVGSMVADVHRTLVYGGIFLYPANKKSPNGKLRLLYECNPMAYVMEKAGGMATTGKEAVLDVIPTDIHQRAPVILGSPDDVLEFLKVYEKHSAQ

melting point: 252 to 256 °C
SMILES: CCOc1cc2nc(CCl)nc(Nc3cccc(-c4csc(C)n4)c3)c2cc1OCC.Cl

IC50 [1]: 800 nM
SMILES: Nc1ncnc2c1ncn2[C@@H]1O[C@H](COP(=O)(O)O)[C@@H](O)[C@H]1O [AMP, adenosine 5′-monophosphate]

SMILES: O=CN/C=C/c1cc(O)ccc1O [erbstatin]
growth of transplanted human mammary carcinoma expressing EGFR [2]: selectively attenuates the growth | growth of carcinoma which does not express the EGF receptor [3]: without effect on the growth
